{"source": "patent US10246456B2", "about": "“IRAK4 inhibiting agents” (BIOGEN MA INC., priority 2014, dated 2019)", "note": "pIC50: −log10 of the molar value.", "data": [{"biological_target": "IRAK4 (Homo sapiens (Human), UniProt Q9NWZ3)", "sequence (Q9NWZ3 whole entry, species assumed)": "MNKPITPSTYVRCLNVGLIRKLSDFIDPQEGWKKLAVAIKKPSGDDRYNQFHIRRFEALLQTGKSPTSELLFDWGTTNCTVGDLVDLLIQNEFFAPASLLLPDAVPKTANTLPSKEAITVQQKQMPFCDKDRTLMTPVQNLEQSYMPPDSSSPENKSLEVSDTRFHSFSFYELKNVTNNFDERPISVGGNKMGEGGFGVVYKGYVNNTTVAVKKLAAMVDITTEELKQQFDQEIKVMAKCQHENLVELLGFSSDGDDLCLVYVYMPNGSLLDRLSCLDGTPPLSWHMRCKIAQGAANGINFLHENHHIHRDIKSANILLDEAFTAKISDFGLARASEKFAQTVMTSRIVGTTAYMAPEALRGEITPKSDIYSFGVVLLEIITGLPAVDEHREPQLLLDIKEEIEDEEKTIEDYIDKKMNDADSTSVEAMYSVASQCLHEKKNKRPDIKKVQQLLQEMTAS", "assay": "IRAK-4 AlphaScreen biochemical kinase assay", "settings": "1 nM IRAK4, 1 mM ATP, 3.5 h at RT", "summary_of_the_method": "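AlphaScreen read-out: streptavidin beads bind the biotinylated peptide and protein A beads bind the anti-phosphothreonine antibody, so energy transfer reports phosphorylation of the peptide. The kinase is human IRAK-4.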", "values": [{"smiles": "Cc1cccc(-n2ncc3ccc(-c4cccc(C(N)CO)n4)cc32)n1", "note": "(centres unmarked) [Example 271, 2-amino-2-(6-(1-(6-methylpyridin-2-yl)-1H-indazol-6-yl)pyridin-2-yl)ethanol]", "pIC50": "> 7.00"}, {"smiles": "COC(=O)C(N)c1cccc(-c2ccc3cnn(-c4cccc(C)n4)c3c2)n1", "note": "(centres unmarked) [Example 272, methyl 2-amino-2-(6-(1-(6-methylpyridin-2-yl)-1H-indazol-6-yl)pyridin-2-yl)acetate]", "pIC50": "6.00 to 7.00"}, {"smiles": "Cc1cccc(-n2ncc3ccc(-c4cccc(C(N)C(=O)O)n4)cc32)n1", "note": "(centres unmarked) [Example 273, 2-amino-2-(6-(1-(6-methylpyridin-2-yl)-1H-indazol-6-yl)pyridin-2-yl)acetic acid]", "pIC50": "> 7.00"}, {"smiles": "CCCC(N)c1cccc(-c2ccc3cnn(-c4cccc(C(N)=O)n4)c3c2)n1", "note": "(centres unmarked) [Example 274, 6-(6-(6-(1-aminobutyl)pyridin-2-yl)-1H-indazol-1-yl)picolinamide]", "pIC50": "> 7.00"}, {"smiles": "CC(N)c1cccc(-c2ccc3cnn(-c4cccc(C(C)(C)O)n4)c3c2)n1", "note": "(centres unmarked) [Example 278, 2-(6-(6-(6-(1-aminoethyl)pyridin-2-yl)-1H-indazol-1-yl)pyridin-2-yl)propan-2-ol]", "pIC50": "> 7.00"}, {"smiles": "COCc1cccc(-n2ncc3ccc(-c4cccc(C(C)N)n4)cc32)n1", "note": "(centres unmarked) [Example 279, 1-(6-(1-(6-(methoxymethyl)pyridin-2-yl)-1H-indazol-6-yl)pyridin-2-yl)ethanamine]", "pIC50": "> 7.00"}, {"smiles": "CCCC(N)c1cccc(-c2ccc3cnn(-c4cccc(CO)n4)c3c2)n1", "note": "(centres unmarked) [Example 280, (6-(6-(6-(1-aminobutyl)pyridin-2-yl)-1H-indazol-1-yl)pyridin-2-yl)methanol]", "pIC50": "> 7.00"}, {"smiles": "Cc1cccc(-n2ncc3ccc(-c4ccc(C)c(C(C)N)n4)cc32)n1", "note": "(centres unmarked) [Example 281, 1-(3-methyl-6-(1-(6-methylpyridin-2-yl)-1H-indazol-6-yl)pyridin-2-yl)ethanamine]", "pIC50": "> 7.00"}, {"smiles": "Cc1csc(-n2ncc3ccc(-c4cccc(C(C)N)n4)cc32)c1", "note": "(centres unmarked) [Example 282, 1-(6-(1-(4-methylthiophen-2-yl)-1H-indazol-6-yl)pyridin-2-yl)ethanamine]", "pIC50": "5.00 to 6.00"}, {"smiles": "CCCc1cccc(-n2ncc3ccc(-c4cccc(C(C)N)n4)cc32)n1", "note": "(centres unmarked) [Example 283, 1-(6-(1-(6-propylpyridin-2-yl)-1H-indazol-6-yl)pyridin-2-yl)ethanamine]", "pIC50": "> 7.00"}, {"smiles": "CC(N)c1cccc(-c2ccc3cnn(-c4cccc(C(C)O)n4)c3c2)n1", "note": "(centres unmarked) [Example 284, 1-(6-(6-(6-(1-aminoethyl)pyridin-2-yl)-1H-indazol-1-yl)pyridin-2-yl)ethanol]", "pIC50": "> 7.00"}, {"smiles": "Cc1cccc(-n2ncc3ccc(-c4coc(CN)n4)cc32)n1", "note": "[Example 285, (4-(1-(6-methylpyridin-2-yl)-1H-indazol-6-yl)oxazol-2-yl)methanamine]", "pIC50": "5.00 to 6.00"}, {"smiles": "CC(N)c1cccc(-c2ccc3cnn(-c4cccc(C(C)(C)C)n4)c3c2)n1", "note": "(centres unmarked) [Example 286, 1-(6-(1-(6-(tert-butyl)pyridin-2-yl)-1H-indazol-6-yl)pyridin-2-yl)ethanamine]", "pIC50": "> 7.00"}, {"smiles": "CC(N)c1cccc(-c2ccc3cnn(-c4cccc(CN)n4)c3c2)n1", "note": "(centres unmarked) [Example 287, 1-(6-(1-(6-(aminomethyl)pyridin-2-yl)-1H-indazol-6-yl)pyridin-2-yl)ethanamine]", "pIC50": "6.00 to 7.00"}, {"smiles": "CC(N)c1cccc(-c2ccc3cnn(-c4cccc(C(C)(C)C#N)n4)c3c2)n1", "note": "(centres unmarked) [Example 288, 2-(6-(6-(6-(1-aminoethyl)pyridin-2-yl)-1H-indazol-1-yl)pyridin-2-yl)-2-methylpropanenitrile]", "pIC50": "6.00 to 7.00"}, {"smiles": "CC(N)c1cccc(-c2ccc3cnn(-c4cccc(C(C)(C)S(C)(=O)=O)n4)c3c2)n1", "note": "(centres unmarked) [Example 289, 1-(6-(1-(6-(2-(methylsulfonyl)propan-2-yl)pyridin-2-yl)-1H-indazol-6-yl)pyridin-2-yl)ethanamine]", "pIC50": "5.00 to 6.00"}, {"smiles": "CC(N)c1cccc(-c2ccc3cnn(-c4cccc(C5(C#N)CC5)n4)c3c2)n1", "note": "(centres unmarked) [Example 290, 1-(6-(6-(6-(1-aminoethyl)pyridin-2-yl)-1H-indazole-1-yl)pyridin-2-yl)cyclopropanecarbonitrile]", "pIC50": "> 7.00"}]}]}
